The text below walks through data of US6342225B1, “Pharmaceutical active conjugates” (Deutshces Wollforschungsinstitut, priority 1993, dated 2002).

Assay [1] has as its target T1, thyroxine binding globulin (TBG) (Homo sapiens, UniProt P05543).
T1 sequence (P05543 21-415): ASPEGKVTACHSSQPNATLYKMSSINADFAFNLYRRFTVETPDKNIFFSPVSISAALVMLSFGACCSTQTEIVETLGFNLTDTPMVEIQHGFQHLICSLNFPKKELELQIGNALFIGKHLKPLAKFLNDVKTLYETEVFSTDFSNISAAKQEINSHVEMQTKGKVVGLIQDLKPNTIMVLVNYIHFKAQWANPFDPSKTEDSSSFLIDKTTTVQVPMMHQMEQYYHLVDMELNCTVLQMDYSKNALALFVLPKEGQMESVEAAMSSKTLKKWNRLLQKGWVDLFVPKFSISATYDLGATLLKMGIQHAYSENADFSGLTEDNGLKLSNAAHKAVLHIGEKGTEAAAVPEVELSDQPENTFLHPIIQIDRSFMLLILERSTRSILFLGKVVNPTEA
Briefly: optical biosensor IAsys kinetic binding to immobilized TBG. The settings on record: control, 500 μg/ml.
Experimental: The optical bio-sensor IAsys makes it possible to record biomolecular interactions in real time and thus kinetical studies.
The surface of the cuvette is covered with a carboxymethylated dextran matrix (CMD), to which the plasma protein TBG is immobilized.
Immobilization of TBG to the carboxymethylated matrix is detected via the change of the resonance angle.
For the kinetical studies the Thyroid-Insulin conjugate was injected into the microcuvette in dilution series of 200, 300, 400 and 500 μg/ml in HBS/Tween-buffer at 25° C. To test for reproducibility, all measurements were repeated 3 times.
As a control, native insulin was injected at high concentration (500 μg/ml). […] For further measurements the surface of the microcuvette was rinsed several times with buffer.
Determination of “on-rate” constants kon at various ligand concentrations CL allow kon to be plotted against CL according to equation (4). This gives the association rate constant kA from the slope and the dissociation rate constant kD at C2=O. It has, however, to be taken into account that the error of kD becomes too large when kD<0,01 s^−1 (IAsys, METHODS GUIDE).

Assay [2] has as its system hepatic glucose output and peripheral uptake. The conditions noted are these: British Diabetic Association conference 1989; cited from earlier work.
Assay [3] has as its system glucose production (Ra) and glucose disposal (Rd). As to the kind of experiment: glucose turnover during infusion with D-3H-3-glucose in anaesthetized beagles, euglycaemia maintained. Format: in vivo. The settings on record: mean±SEM.
Experimental: Euglycaemia and glucose specific activity were maintained by variable infusion of D-glucose with D-^3H-3-glucose.
In each experiment insulin-like activity for Ra and Rd was calculated as the area between the basal values of each of these variables and subsequent values plotted graphically against time (AUC).

Regarding “native insulin: native insulin injected at 500 μg/ml as control in the biosensor study”, in assay [1], the “association to immobilized TBG” value is “association cannot be observed”. For “proinsulin: the zymogen which is cleaved to form the active hormone insulin”, the “hepatoselectivity (effect on hepatic glucose output versus peripheral uptake and utilisation)” value in assay [2] is reported as “shows this hepatoslectivity to a smaller degree”. For the substance insulin, in assay [3], the “AUC for Ra (glucose production), area between basal and subsequent values against time” value was -431 ± 121 mg/kg; the “AUC for Rd (glucose disposal), area between basal and subsequent values against time” value was 1142 ± 160 mg/kg.
